Like-named read-outs stand apart in the source and are kept apart here.
Assays:
[1] = biological target: MeCP2_MBD binding to 5-mCpG containing DNA (Homo sapiens (Human), UniProt P51608); experiment: DNA-protein binding assay, MeCP2_MBD to methylated oligonucleotide; conditions: His-tagged MeCP2_MBD, read-out: MeCP2 Binding Inhibition (IC50 in μM)
Method: (§1) To determine if the “lead” compounds directly interfere with MBD2 binding to ^5−m CpG containing DNA, each “lead” compound is tested for its ability to inhibit such binding using a DNA-protein binding assay. For this assay, a biotinylated and methylated oligonucleotide substrate is bound to a neutravidin-coated high binding capacity 96-well plate. His-tagged MBD2_MBD or MeCP2_MBD binds to the methylated oligonucleotide. An Anti-His-HRP conjugated antibody is used to detect bound protein. Introducing the “lead” compounds into the reaction mix at various concentrations provides a MBD2_MBD-DNA binding curve from which an IC50 is derived.
(§2) DNA binding assays using recombinant MBDs. […] After centrifugation in a microfuge, the soluble protein fraction, containing MBD2, was recovered. A similar approach was used for producing cloned recombinant MeCP2. […] After washing four times with binding buffer and drying wells, TMB is added to each well followed by 1 N HCl, and A450 is measured on a microplate reader. The IC50 for each “lead” compound is derived from the DNA-protein binding curve.

[2] = biological target: recombinant DNMT1 (Homo sapiens (Human), UniProt P26358); experiment: DNA methyltransferase activity assay with recombinant DNMT1; assay type: biochemical; conditions: for DNMT1 Inhibition (IC50 in μM): recombinant DNMT1
Chain of recombinant DNMT1 (P26358 whole entry): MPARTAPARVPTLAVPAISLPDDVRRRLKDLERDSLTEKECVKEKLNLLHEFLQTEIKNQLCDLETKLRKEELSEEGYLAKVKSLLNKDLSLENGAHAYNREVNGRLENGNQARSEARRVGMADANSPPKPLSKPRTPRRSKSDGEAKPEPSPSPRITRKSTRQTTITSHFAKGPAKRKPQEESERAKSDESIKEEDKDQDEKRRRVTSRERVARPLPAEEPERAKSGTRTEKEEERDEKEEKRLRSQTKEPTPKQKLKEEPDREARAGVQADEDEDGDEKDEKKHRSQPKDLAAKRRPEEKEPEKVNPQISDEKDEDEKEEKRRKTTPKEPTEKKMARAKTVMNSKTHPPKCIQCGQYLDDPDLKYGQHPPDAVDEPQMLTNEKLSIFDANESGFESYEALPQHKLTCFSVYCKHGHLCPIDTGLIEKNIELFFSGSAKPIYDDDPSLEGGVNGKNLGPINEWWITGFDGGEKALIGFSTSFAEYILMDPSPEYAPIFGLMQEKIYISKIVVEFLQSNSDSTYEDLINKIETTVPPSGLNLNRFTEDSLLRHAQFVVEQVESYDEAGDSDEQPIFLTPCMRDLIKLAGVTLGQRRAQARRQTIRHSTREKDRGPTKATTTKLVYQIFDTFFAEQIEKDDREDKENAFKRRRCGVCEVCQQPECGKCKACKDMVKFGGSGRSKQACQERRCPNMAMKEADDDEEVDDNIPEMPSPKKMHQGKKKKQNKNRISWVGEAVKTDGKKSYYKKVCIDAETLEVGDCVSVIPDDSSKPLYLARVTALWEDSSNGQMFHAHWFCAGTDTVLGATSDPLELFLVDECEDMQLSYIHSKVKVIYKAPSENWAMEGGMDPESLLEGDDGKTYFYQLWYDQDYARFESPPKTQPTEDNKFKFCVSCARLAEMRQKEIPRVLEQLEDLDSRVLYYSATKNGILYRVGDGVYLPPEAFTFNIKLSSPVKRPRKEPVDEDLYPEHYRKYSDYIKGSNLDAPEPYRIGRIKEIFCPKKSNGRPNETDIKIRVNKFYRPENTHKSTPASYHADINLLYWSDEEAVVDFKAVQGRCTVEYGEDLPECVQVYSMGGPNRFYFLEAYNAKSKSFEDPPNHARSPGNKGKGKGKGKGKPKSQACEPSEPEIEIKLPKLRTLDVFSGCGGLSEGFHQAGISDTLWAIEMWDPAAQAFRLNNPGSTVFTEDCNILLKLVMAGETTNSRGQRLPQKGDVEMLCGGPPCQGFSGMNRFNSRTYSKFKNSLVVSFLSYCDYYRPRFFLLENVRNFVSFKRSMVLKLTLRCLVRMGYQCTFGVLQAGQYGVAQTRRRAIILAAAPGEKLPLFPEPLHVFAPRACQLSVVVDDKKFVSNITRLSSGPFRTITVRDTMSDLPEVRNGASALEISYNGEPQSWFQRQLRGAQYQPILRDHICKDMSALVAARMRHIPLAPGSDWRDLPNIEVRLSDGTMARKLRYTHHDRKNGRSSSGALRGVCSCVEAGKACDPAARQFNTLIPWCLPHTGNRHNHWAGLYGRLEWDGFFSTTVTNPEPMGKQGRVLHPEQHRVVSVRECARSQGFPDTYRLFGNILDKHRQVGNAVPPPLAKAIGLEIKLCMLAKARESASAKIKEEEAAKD
From the text: (§3) The outputs of these experiments were Ki's for each of the DNMT enzymes. When considered along with potency and efficacy data from the screening assays, the results of analyses of “lead” compounds for interference with MBD2 binding to ^5−m CpG-containing DNA, for direct binding to ^5−mCpG-containing DNA, and for inhibition of DNMTs allow prioritization of “lead” compounds. Ideally, “lead” compounds that activate expression from GSTP1 alleles with CpG island hypermethylation at sub-μM concentrations, target MBD2 directly, and fail to inhibit DNMTs, are high-priority “lead” compounds.
DNMT assays using recombinant DNMT1, DNMT3a, and DNMT3b. To produce recombinant DNMT1, full-length DNMT1 cDNA was amplified in two segments by RT-PCR from human brain poly A+ RNA (BD Clontech). Amplification of the upstream segment was performed using the PCR primers (5′-[…]-3′ (SEQ ID NO:4) and 5′-[…]-3′ (SEQ ID NO:5)), and amplification of the downstream segment was performed using the PCR primers (5′-[…]-3′ (SEQ ID NO:6) and 5′-[…]-3′ (SEQ ID NO:7)). The upstream and downstream segments were subcloned into the pCMVscript® vector (Stratagene), and assembled using an internal BstEII site that is common to both segments to create pCMVscript-DNMT1. PCR primers containing EcoRI and KpnI sites (5′-GAATTCCCGGCGCGTACCG-3′ (SEQ ID NO:8) and 5′-[…]-3′ (SEQ ID NO:9)) were used to amplify the DNMT1 coding sequence from pCMVscript-DNMT1. […] This pFB6H-DNMT1 construct was used to transform DH10Bac™ E. coli competent cells (Invitrogen) to generate a recombinant expression bacmid via site-specific transposition. The DNMT1 expression bacmid was transfected into Sf9 insect cells to produce recombinant DNMT1 baculovirus particles, which were subsequently used to infect additional Sf9 cells (1 MOI, 48 hours) for protein production. Recombinant His(6)-(SEQ ID NO:21)-DNMT1 was recovered by Ni2+ affinity chromatography. After lysis in 50 mM Na2HPO4 pH 7.6, 10 mM imidazole, 500 mM NaCl, 1% Igepal CA-630, 10% glycerol, and 1× Complete™ Protease Inhibitor (Roche) by two freeze-thaw cycles, His(6)-(SEQ ID NO:21)-DNMT1 was bound to Ni-NTA agarose (Qiagen) for 1.5 hours at 4° C. The supernatant was removed, and the beads were washed twice with 50 mM Na2HPO4 pH 7.6, 20 mM imidazole, 500 mM NaCl, 10% glycerol, and 1× Complete™ Protease Inhibitor to remove contaminating proteins. The beads were then washed twice with 50 mM Na2HPO4 pH 7.6, 10 mM NaCl, 10% glycerol, and 1× Complete™ Protease Inhibitor to remove excess salt. His(6)-(SEQ ID NO:21)-DNMT1 was eluted from the Ni-NTA agarose by adding 50 mM Na2HPO4 pH 7.6, 250 mM imidazole, 10 mM NaCl, 10% glycerol, and 1× Complete™ Protease Inhibitor. Spin dialysis was used to concentrate the protein and exchange the buffer 50 mM Na2HPO4 pH 7.6, 10 mM NaCl, 1 mM EDTA, 1 mM DTT, 20% glycerol, and 1× Complete™ Protease Inhibitor. Protein concentration was determined using the BCA assay (Pierce). Recombinant DNMT1 was stored at −80° C. until further use.
DNA methyltransferase activity assays were performed by combining 100 nM His(6)-(SEQ ID NO:21)-DNMT with 5′-biotinylated synthetic hemi-methylated or unmethylated oligonucleotide substrate containing 1 μM CG (Top Strand 5′-[…]-3′ (SEQ ID NO:18), Bottom Strand 5′-[…]-3′ (SEQ ID NO:19)) and 1 μM S-adenosyl-L-[methyl-^3H]Methionine™ (Amersham TRK581 60-85 Ci/mmol). After incubation at 37° C. for 30 minutes, reactions were stopped by adding one volume of 10 mM cold S-adenosyl-L-Methionine™ (Sigma). To purify the oligonucleotides, reactions will be added to a SAm^2® 96 Biotin Capture Plate (Promega). The plate was washed 7 times with PBS+2M NaCl and 3 times with dH20 to remove His(6)-(SEQ ID NO:21)-DNMT1 and S-adenosyl-L-methionine.

[3] = biological target: MBD2_MBD binding to 5-mCpG containing DNA (Homo sapiens (Human), UniProt Q9UBB5); experiment: DNA-protein binding assay, MBD2_MBD to methylated oligonucleotide; conditions: His-tagged MBD2_MBD
Chain of MBD2_MBD binding to 5-mCpG containing DNA (Q9UBB5 145-213): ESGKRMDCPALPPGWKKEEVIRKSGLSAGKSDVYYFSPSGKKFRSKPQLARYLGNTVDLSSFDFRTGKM
Method: as §1, §2

[4] = tested on: ovarian ca; conditions: cited from earlier work
[5] = tested on: colon ca; conditions: cited from earlier work
[6] = tested on: breast ca; conditions: cited from earlier work
[7] = tested on: melanoma; conditions: cited from earlier work
[8] = tested on: prostate ca; conditions: n 14, 225 mg/M^2 over 1 day iv; cited from earlier work
[9] = tested on: lung ca; conditions: n 15, 200-600 mg/M^2 over 1 day iv; cited from earlier work
[10] = tested on: mesothelioma; conditions: cited from earlier work
[11] = biological target: recombinant DNMT3a (Homo sapiens (Human), UniProt Q9Y6K1); experiment: DNA methyltransferase activity assay with recombinant DNMT3a; assay type: biochemical; conditions: read-out: Ki for inhibition of DNMT3a
Chain of recombinant DNMT3a (Q9Y6K1 whole entry, looked up): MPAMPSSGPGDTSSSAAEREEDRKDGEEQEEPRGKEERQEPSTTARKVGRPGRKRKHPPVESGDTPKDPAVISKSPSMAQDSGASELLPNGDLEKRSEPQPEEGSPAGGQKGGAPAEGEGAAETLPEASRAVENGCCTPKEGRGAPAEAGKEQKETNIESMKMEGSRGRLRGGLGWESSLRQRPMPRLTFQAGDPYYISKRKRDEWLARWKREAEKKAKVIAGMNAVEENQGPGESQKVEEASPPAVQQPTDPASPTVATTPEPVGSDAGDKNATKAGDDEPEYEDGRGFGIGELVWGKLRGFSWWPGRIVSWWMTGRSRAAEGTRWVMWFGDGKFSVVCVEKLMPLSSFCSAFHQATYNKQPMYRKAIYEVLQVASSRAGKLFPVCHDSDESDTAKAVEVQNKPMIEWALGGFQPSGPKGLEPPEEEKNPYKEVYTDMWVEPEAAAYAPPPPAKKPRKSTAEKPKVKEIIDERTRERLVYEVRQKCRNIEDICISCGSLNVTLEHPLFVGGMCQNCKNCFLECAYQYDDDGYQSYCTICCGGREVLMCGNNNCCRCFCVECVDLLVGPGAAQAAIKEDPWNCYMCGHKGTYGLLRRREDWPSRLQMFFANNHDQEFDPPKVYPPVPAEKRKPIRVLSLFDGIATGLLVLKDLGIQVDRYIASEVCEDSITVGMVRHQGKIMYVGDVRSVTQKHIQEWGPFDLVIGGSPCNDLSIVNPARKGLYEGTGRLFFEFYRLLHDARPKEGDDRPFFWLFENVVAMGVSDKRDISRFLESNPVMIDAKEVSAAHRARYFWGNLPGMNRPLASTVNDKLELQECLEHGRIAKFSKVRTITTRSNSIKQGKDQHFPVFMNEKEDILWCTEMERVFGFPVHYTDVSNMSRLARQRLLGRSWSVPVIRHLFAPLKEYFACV
From the text: as §3
His(6)-(SEQ ID NO:21)-DNMT3a and His(6)-(SEQ ID NO:21)-DNM3b2 were expressed and purified in Sf9 cells as described above with the following modifications. […]
DNA methyltransferase activity assays were performed by combining 100 nM His(6)-(SEQ ID NO:21)-DNMT with 5′-biotinylated synthetic hemi-methylated or unmethylated oligonucleotide substrate containing 1 μM CG (Top Strand 5′-[…]-3′ (SEQ ID NO:18), Bottom Strand 5′-[…]-3′ (SEQ ID NO:19)) and 1 μM S-adenosyl-L-[methyl-^3H]Methionine™ (Amersham TRK581 60-85 Ci/mmol). […] After drying the plate, 30 μl Microscint-PS™ scintillation fluid (Packard) was added to each well, and tritium was quantitated using the TopCount™ NXT liquid scintillation counter (Packard). […]

[12] = n 4, 275-850 mg/M^2 over 10 days sq

Chain of MeCP2_MBD binding to 5-mCpG containing DNA (P51608 90-162): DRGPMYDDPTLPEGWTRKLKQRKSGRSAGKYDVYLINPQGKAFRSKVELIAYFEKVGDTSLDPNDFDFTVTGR

Row | Compound | IC50 [1] | DNMT1 Inhibition (IC50 in μM) [2] | also measured
1 | c1ccc(Nc2nc(-c3ccccn3)cs2)nc1 [(I)] | 10.5 µM | – | –
2 | Oc1cccc(Nc2nc(-c3ccccn3)cs2)c1 [(II)] | > 200 µM | No Inhibition | –
3 | Cn1c2ccccc2n2cc(-c3ccc([N+](=O)[O-])cc3)nc12 [(III)] | > 200 µM | No Inhibition | –
4 | COc1ccccc1-c1nc(-c2cccc([N+](=O)[O-])c2)no1 [(X)] | > 200 µM | No Inhibition | –
5 | COc1ccc([N+](=O)[O-])cc1C1NN=C(c2ccccc2)S1 (stereo not drawn) [(XIX)] | – | No Inhibition | MBD2 Binding Inhibition (IC50 in μM) [3]: In- conclusive
6 | Oc1ccc(C2NN=C(c3ccccc3)S2)cc1 (stereo not drawn) [(XVII)] | 16.9 µM | No Inhibition | –
7 | COc1cc(O)cc(Br)c1/C=N/Nc1nc2ccccc2s1 [(XVIII)] | > 200 µM | No Inhibition | –
8 | OC1(C(F)(F)F)CC(c2ccccc2)=NN1C(=S)c1ccccc1 (stereo not drawn) [(XX)] | > 200 µM | No Inhibition | –
9 | Clc1ccc(C2NN=C(c3ccccc3)S2)cc1 (stereo not drawn) [(XXI)] | 33.9 µM | No Inhibition | –
10 | Oc1ccc2ccccc2c1C1NN=C(c2ccccc2)S1 (stereo not drawn) [(XXII)] | 0.61 µM | No Inhibition | –
11 | Nc1cccc(-c2nnc(-c3ccccc3)o2)c1 [(XXIII)] | 8.59 µM | No Inhibition | –
12 | COc1ccc(NC(=O)Nc2cccc3cccnc23)cc1 [(XXIV)] | 2.81 µM | – | –
13 | CCOc1ccc(Nc2nc(-c3ccccn3)cs2)cc1 [(XXV)] | > 200 µM | – | –
14 | Nc1ncn([C@@H]2O[C@H](CO)[C@@H](O)[C@H]2O)c(=O)n1 [Compound 5-aza-C, 5-az-cytidine] | – | – | % Response [4, 12]: 25%; % Response ([5]; n 4, 275-850 mg/M^2 over 8 days sq): 0%; % Response ([5]; n 6, 300-700 mg/M^2 over 10 days iv): 33%; % Response ([5]; n 27, dose not given): 4%; % Response ([6]; 1.6 mg/kg over 10 days iv): 17%; % Response [6, 12]: 25%; % Response ([6]; n 11, 300-700 mg/M^2 over 8 days iv): 63%; % Response ([6]; n 31, 600 mg/M^2 over 10 days iv): 6%; % Response ([7]; n 5, 300-700 mg/M^2 over 8 days iv): 40%
15 | Nc1ncn([C@H]2C[C@H](O)[C@@H](CO)O2)c(=O)n1 [Compound 5-aza-dC, 5-aza-deoxycytidine] | – | – | % Response ([4]; n 24, 225 mg/M^2 over 10 days iv): 8%; % Response [8]: 16%; % Response [9]: 20%; % Response ([5]; n 42, 225 mg/M^2 over 1 day iv): 0%; % Response ([7]; n 18, 225 mg/M^2 over 1 day iv): 0%
16 | NC1=NCN([C@@H]2O[C@H](CO)[C@@H](O)[C@H]2O)C(=O)N1 [dh-5-aza-C] | – | – | % Response ([10]; n 29, 1500 mg/M^2 over 5 days cl): 17%; % Response ([10]; n 41, 1500 mg/M^2 over 5 days cl): 17%; % Response ([7]; n 40, 5 g/M^2 over 1 day cl): 20%
17 | CCN(CC)CCNC(=O)c1ccc(N)cc1 [procainamide, reference compound] | – | – | Ki [11]: 1400 µM; Ki ([2]; mixed mechanism, read-out: Ki for inhibition of DNMT1): 7.2 µM
